The target in assay [1] is T1, JAK3 kinase (Homo sapiens, UniProt P52333).
T1 sequence (P52333 1-1124): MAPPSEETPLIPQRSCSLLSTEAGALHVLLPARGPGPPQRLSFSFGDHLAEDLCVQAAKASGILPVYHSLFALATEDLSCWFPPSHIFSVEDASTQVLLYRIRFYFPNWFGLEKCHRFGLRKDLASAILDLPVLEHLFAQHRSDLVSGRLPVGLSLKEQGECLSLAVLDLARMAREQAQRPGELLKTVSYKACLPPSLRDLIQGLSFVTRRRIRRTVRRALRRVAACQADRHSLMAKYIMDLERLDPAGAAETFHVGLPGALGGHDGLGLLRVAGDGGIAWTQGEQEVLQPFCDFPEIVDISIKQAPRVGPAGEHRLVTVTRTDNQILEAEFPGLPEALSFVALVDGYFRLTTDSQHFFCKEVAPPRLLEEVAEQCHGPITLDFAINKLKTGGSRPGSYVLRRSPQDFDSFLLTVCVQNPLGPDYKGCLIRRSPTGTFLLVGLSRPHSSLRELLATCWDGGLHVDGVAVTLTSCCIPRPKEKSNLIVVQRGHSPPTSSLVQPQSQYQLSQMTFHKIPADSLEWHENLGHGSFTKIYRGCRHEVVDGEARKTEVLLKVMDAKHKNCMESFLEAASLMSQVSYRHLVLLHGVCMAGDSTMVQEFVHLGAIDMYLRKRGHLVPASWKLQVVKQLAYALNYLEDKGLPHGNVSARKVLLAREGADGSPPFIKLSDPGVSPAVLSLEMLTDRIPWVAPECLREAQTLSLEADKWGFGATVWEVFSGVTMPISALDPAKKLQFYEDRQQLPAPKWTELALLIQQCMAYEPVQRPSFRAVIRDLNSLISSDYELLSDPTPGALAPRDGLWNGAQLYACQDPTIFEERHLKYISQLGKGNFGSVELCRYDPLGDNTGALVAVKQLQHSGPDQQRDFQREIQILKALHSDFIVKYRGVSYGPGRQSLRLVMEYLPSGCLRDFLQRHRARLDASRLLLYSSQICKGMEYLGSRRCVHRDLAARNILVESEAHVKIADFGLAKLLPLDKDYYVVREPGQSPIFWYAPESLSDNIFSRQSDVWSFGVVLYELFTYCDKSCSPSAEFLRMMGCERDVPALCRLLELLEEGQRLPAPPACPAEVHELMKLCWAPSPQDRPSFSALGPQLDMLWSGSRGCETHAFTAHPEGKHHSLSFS
The assay is described as follows: Mobility shift assay, JAK3 kinase inhibitory activity. Type of assay: biochemical. The following applies: Caliper EZ Reader.
Experimental: Mobility shift assay was used to detect the in vitro inhibitory activity of the test compounds (listed below) on JAK3 kinase activity. Cerdulatinib (supplier: selleckchem; Article number: S7634) was used as a positive control compound.
Compound was dissolved in 100% DMSO to formulate a 10 mM stock solution and stored in a −20° C. refrigerator away from light.
(1) 1×Kinase buffer was prepared.
After being gradient dilution to a 100-fold final concentration, 250 nL of solutions were transferred to a 384-well plate using Echo550. 250 nL of 100% DMSO were added to each of the negative control wells and the positive control wells, respectively.
(3) 2.5 times a final concentration of kinase solution was prepared with 1×Kinase buffer. […]
(10) The conversion rate was read by Caliper EZ Reader.
Wherein: Conversion %_sample is the conversion rate reading of the sample; Conversion %_min: the mean value of the negative control wells, representing the conversion rate reading of the wells without enzyme activity; Conversion %_max: the mean value of the positive control wells, representing the conversion rate reading of the wells without compound inhibition; % Inhibition represents the percentage inhibition rate. […]

Assay [2] has as its system mouse model of acute radiation-induced lung injury. The experiment in a line: Acute radiation-induced lung injury in mice. Type of assay: in vivo, C57BL/6 mice. Conditions: 30 mg/kg q.d., 22.5 Gy whole lung, three weeks after modeling. The procedure:
Eighteen female C57BL/6 mice were divided randomly into three groups: blank control group, simple irradiation group, and irradiation+ drug YZ001052 (30 mg/kg q. d) intervention group, with 6 mice in each group.
The mice were anesthetized with 1% sodium pentobarbital by intraperitoneal injection, and irradiated the whole lung with 22.5 Gy in a single shot using 220 KV X-rays through the Small Animal Precision Radiotherapy Research Platform (SARRP). After irradiation, the mice were housed in a normal manner.
Three weeks after modeling, the mice were anesthetized and dissected. The lung tissues were exposed and the left lung was ligated, an open tracheotomy was performed, the lung was lavaged with cold PBS, and the alveolar lavage fluid (BALF) was collected and centrifuged at 4° C.
The supernatant was collected to detect the content of inflammatory factor TNF-α by ELISA.
Resuspend the bronchoalveolar lavage fluid cell pellet in 200 μL PBS for white blood cell (WBC) counting.

The test system of assay [3] is DSS-induced inflammatory bowel disease model in mice. The experiment in a line: DSS-induced mouse inflammatory bowel disease model. The format is in vivo, C57BL/6 mice. The following applies: 50 mg/kg once a day, 5% DSS, day 8, compared with model group, FIG. 78. As to the method:
Experimental purpose: To test the immunosuppressive activity of YZ001052 in DSS-induced inflammatory bowel disease model in mice. PF-06651600 was used as a positive control compound.
50 g of DSS was added 1000 mL of sterile water to formulate a 5% DSS solution, and the solution was filtered with a 0.22 μm filter membrane. Starting from day 0, the blank group was gave drinking water without DSS, and the other experimental groups were gave drinking water containing 5% DSS. All mice were sacrificed on day 8. After the experiment, the colon was collected, photographed and measured for length. The data were analyzed according to Statistics.

In assay [4] the test system is collagen-induced arthritis model in mice. The assay is described as follows: Collagen-induced arthritis model in mice (mCIA). Type of assay: in vivo, DBA/1J mice. Conditions: 50 mg/kg once a day, FIG. 77. As to the method:
1. Construction of collagen-induced arthritis model in mice (mCIA) Experimental purpose: To test the immunosuppressive activity of YZ001052 in the mCIA model. PF-06651600 was used as a positive control compound.
Complete and incomplete Freund's adjuvants with chicken type II collagen solution were mixed in equal proportions to form emulsions. Except for the blank control group, a mixture of complete Freund's adjuvant and chicken type II collagen solution was injected subcutaneously into the base of the tail and thigh of mice on Day 0. Each mouse was injected subcutaneously with 100 μL at the base of the tail, and injected 50 μL subcutaneously at the base of both thighs (primary immunization). On day 21, mice were injected subcutaneously with 200 μL of a mixture of incomplete Freund's adjuvant and chicken type II collagen as a booster injection (second immunization). Arthritis was considered to occur if the clinical score of at least one limb was >2 points. Paw thickness measurement: Using a vernier caliper to measure the thickness of the left and right hind feet of the mouse and record it, which is the degree of paw swelling. The detection frequency was once every 3 days.

Assay [5] concerns p-STAT5 under IL-15 stimulation in PBMC (JAK-STAT pathway). The assay is described as follows: p-STAT5 ELISA in IL-15 stimulated hPBMC cells. Conditions: Homo sapiens, PBMC, 45 min compound, 30 min IL-15, ELISA. The format is cell-based, human. As to the method:
Based on the mechanism of JAK-STAT pathway, the effect of the compounds on the JAK-STAT pathway were evaluated by using cytokine IL-15 to stimulate hPBMC cells, and using the downstream STAT5 phosphorylation level as the detection index.
1. PBMC cell counting plate: 90 μL PBMC was seeded in a 96-well plate (PBMC cell density 80,000/well).
2. Treatment with test compounds: After cells being seeded, drug treatment was carried out immediately. The drugs to be tested at 5 μL/well (final concentrations 1, 0.5, 0.1, 0.05, 0.01, and 0.005 μM) were incubated at 37° C. for 45 min.
3. Cytokine IL-15 stimulation: The cells were stimulated by 5 μL IL-15, and incubated at 37° C. for 30 min.
4. Protein sample collection: The cells were collected in a centrifuge tube and centrifuged for 5 minutes. The supernatant was discarded and cells were lysed with 1× Cell Extraction Buffer PTR.
5. p-STAT5 detection: Perform detection according to the requirements of the ELISA kit.
Experimental results: IC50 values of compounds on p-STAT5 under IL-15 stimulation in PBMC
(In general: An ELISA detects its analyte on a solid surface through an enzyme-linked reagent.)

The subject of assay [6] is SRBC mouse model. The experiment in a line: SRBC-induced delayed-type hypersensitivity (DTH) in mice. The format is in vivo, Balb/c mice. Conditions: 100 mg/kg gavage once a day, day 0 to day 6, FIG. 76. As to the method:
Drug formulation: The compound was added to 0.5% CMC-Na solution to formulate a drug suspension (dosage is 10 mg/mL).
Induction and administration of delayed-type hypersensitivity (DTH): 30 male Balb/c mice were weighed and randomly divided into 6 groups according to body weight, with 5 mice in each group. The experimental period lasted for 7 days. On day 0, mice were sensitized by subcutaneous injection of sheep red blood cells (SRBC). The mice were performed gavage administration at 100 mg/kg (once a day) from day 0 to day 6. On day 6, the mice were injected SRBC into the right hind foot pad for challenge. Measurements were taken on the 7th day of the experiment, and the experiment was concluded.
Pharmacodynamic detection indicators of disease models: the detection and observation indicators are the redness and swelling degree and thickness of the paw pads of SRBC-induced mice. The thickness of the right paw was measured on day 6 before the SRBC injection challenge as the baseline. The thickness of the right paw was measured again at the end of the experiment, the difference in paw thickness before and after the second injection was calculated.
Statistical analysis: The experimental data were expressed as mean±standard deviation (Mean±SD). All data were statistically analyzed using T-test, with P<0.05 considered statistically significant.

With `C=CC(=O)N1CCc2c(c(-c3ccnc4[nH]ccc34)nn2C)C1` [YZ001052, 1-(1-methyl-3-(1H-pyrrolo[2,3-b]pyridin-4-yl)-1,4,6,7-tetrahydro-5H-pyrazolo[4,3-c]pyridin-5-yl)prop-2-en-1-one], the results for the IC50 in assay [1] and in assay [5] were 0.25 nM and 10.7 nM, respectively. Further, the “TNF-α level in bronchoalveolar lavage fluid” value in assay [2] (FIG. 79) is on record as “good inhibitory effect”. Also, in assay [2] (FIG. 80), the “number of inflammatory cell infiltration in the lungs (white blood cells in BALF)” value is recorded as “significantly reduce”. In addition, in assay [3], the colorectal length result is on record as “significantly increased”. Besides, the paw swelling result in assay [4] (CIA mice) is “improved to varying degrees”. Also, in assay [4] (compared with the model group), the arthritis score result is “significantly decreased”. Also, the “immunosuppressive effect on SRBC-induced delayed-type hypersensitivity (right paw thickness)” value in assay [6] is listed as “significant immunosuppressive effects”.

As usually defined, the IC50 is the concentration that gives 50% inhibition.

The values above are taken from patent publication US20260085076A1, “CRYSTAL FORM OF AROMATIC HETEROCYCLIC COMPOUND, COMPOSITION THEREOF, PRODUCTION METHOD THEREOF AND USES THEREOF” (Hangzhou Yuhong Pharmaceutical Technology Co., Ltd., priority 2023, published 2026).
